First: CCC(=NNc1ccc(C2=NNC(=O)CC2)cc1)c1ccncc1
Second: Cc1cccnc1-c1cc2cccnc2c(=O)[nH]1
The melting point of the first is higher: 235 to 237 °C for the first, 225 to 227 °C for the second.

First: CC(=O)N(NC(N)=S)c1ccc([N+](=O)[O-])cc1
Second: CCCCC1OC(=O)c2cc([N+](=O)[O-])ccc21 (configuration not stated)
The melting point of the first is higher: 242 °C for the first, 53 to 55 °C for the second.

First: O=C(CN1CCOCC1)Nc1cccc2c1C(=O)c1c-2n[nH]c1-c1ccc(N2CCNCC2)cc1
Second: COc1ccc(N2CCN(CCC3OCCc4c(Br)cccc43)CC2)cc1 (configuration not stated)
The melting point of the first is higher: 259 °C for the first, 105 to 106 °C for the second.

First: CCOc1cc(OCCCc2cn(-c3ccc(C(F)(F)F)cn3)nc2OCC)ccc1CCC(=O)O
Second: CCCc1c(Cc2ccccc2)ccc2c(=O)cc(CCC(=O)O)oc12
The melting point of the first is lower: 96 to 97 °C for the first, 160 to 161 °C for the second.

First: CC1(C)C2CC1C(=O)CC2=O
Second: COC(=O)C=CC1=C(N)CCC1=O
The melting point of the first is lower: 80 to 81 °C for the first, 278 to 279 °C for the second.

First: Nc1cccc(-c2ccc(CCCN3CCN(CCc4ccccc4)CC3)cc2)n1
Second: NC(=O)COCCOCCN1CCC(=C(c2ccccc2)c2ccccc2)CC1
The melting point of the first is higher: 125 to 140 °C for the first, 51 to 53 °C for the second.

First: O=S(=O)(NC1CC1)c1cccc(-c2cc(-c3nc(-c4ccc(C(F)(F)F)cc4)cc(C(F)(F)F)n3)ccn2)c1
Second: COc1ccc(C(=O)Nc2ccc(F)cc2)cc1Nc1cccc(C(F)(F)F)c1
The melting point of the first is higher: 196 °C for the first, 163 to 164 °C for the second.

Compared with `COC(=O)c1nnc(NC(=O)CCCOc2cccc(CN3CCCCC3)c2)n1C`, `CCC(CC)NC(=O)NC/C=C\COc1cc(CN2CCCCC2)ccn1` is lower in melting point: 108 to 110 °C for the first, 82 to 84 °C for the second.

First: COc1cccc(CN2CCN(CC(=O)N3CC=C(c4cccc(C(F)(F)F)c4)n4cnc(C#N)c43)CC2)c1
Second: O=C(N1CCCCC1)N1CC(Oc2cccc(C(F)(F)F)c2)C1
The melting point of the first is higher: 131 to 133 °C for the first, 50 to 52 °C for the second.

First: CN1CCCC(CC(C#N)(Cn2cncn2)c2ccc(Cl)cc2Cl)C1 (configuration not stated)
Second: O=c1c2ccc(Cl)cc2[nH]c2c(O)nn(C3CCCc4sccc43)c(=O)c12 (racemic)
The melting point of the first is lower: 125 to 126 °C for the first, > 300 °C for the second.

Compared with `C(=Cc1ncon1)c1ccccc1`, `Clc1ccc(CN2CC=C(/C=C/c3ccccc3)CC2)cc1` is higher in melting point: 82 °C for the first, 141 to 142 °C for the second.

First: Cn1cnnc1COc1nn2c(-c3cc(Cl)on3)nnc2c2ccccc12
Second: Cn1cc(-n2c(-c3cccc(F)c3)nc3c(Cl)ncnc32)ccc1=O
The melting point of the first is higher: 239 to 241 °C for the first, 219 °C for the second.

`Cc1c2c(c(Cc3ccc(C(C)C)cc3)c(C)c1NC(=O)CC(C)(C)C)OCC2` and `Cc1cc(-c2cccc(-c3ccc(OCC(=O)O)c4c3CCCC4)n2)c(C)[nH]1` cannot be ordered by melting point: 201 to 202 °C for the first, 199 to 206 °C for the second.

First: COC(=O)c1cc(Cl)c(I)cc1OC
Second: CC(=O)Nc1cc2c(cc1[N+](=O)[O-])OCOC2
The melting point of the first is lower: 72 to 73 °C for the first, 158 to 159 °C for the second.

Compared with `O=c1[nH]c2ccc(-c3cccc([N+](=O)[O-])c3)cc2[nH]1`, `Cc1nnc2ccc(-c3cccc(N)c3)nn12` is lower in melting point: 324 to 325 °C for the first, 193 °C for the second.

Compared with `CSC(=N)NS(=O)(=O)CCl`, `CON=C(C(=O)O)C1(CCl)OCCO1` is higher in melting point: 60 to 62 °C for the first, 80 to 81 °C for the second.

Compared with `CCOC(=O)c1c(C)[nH]c2ccccc12`, `CCOC(=O)C(=O)Nc1cccc(N(C)C)c1C(N)=O` is higher in melting point: 96 to 98 °C for the first, 133 to 135 °C for the second.

First: O=C(NN=C(c1ccc(Cl)cc1)c1ccc(OC(F)(F)C(Cl)Cl)cc1)c1ccccc1
Second: CN(C(=O)Nc1ccc(Oc2ccccc2)cc1)C(Cl)C(Cl)(Cl)Cl (configuration not stated)
The melting point of the first is lower: 121 to 122 °C for the first, 160 to 162 °C for the second.

Compared with `COc1cc2nc(S(=O)Cc3nccc(N4CCOCC4)c3F)[nH]c2cc1OC` (configuration not stated), `CNC(=O)CN1CCc2cc(Nc3ncc(Cl)c(Nc4c(F)cccc4C(=O)NC)n3)c(OC)cc2CC1` is lower in melting point: 213 to 215 °C for the first, 119 to 130 °C for the second.

First: S=C1CN=C(c2ccccc2Cl)c2cc(CCc3ccccc3)sc2N1
Second: O=C(O)c1cccc(Cn2cc(C3c4ccccc4C=Cc4ccccc43)c(=S)[nH]c2=O)c1
The melting point of the first is lower: 175 to 176 °C for the first, > 230 °C for the second.

Compared with `O=C(Nc1cccc(-c2ccnc3c(C(=O)c4cccs4)cnn23)c1)c1c(F)cccc1F`, `O=C(O)c1cccc2cc(Oc3c(Cl)cc(NS(=O)(=O)c4ccc(Cl)cc4Cl)cc3Cl)cnc12` is higher in melting point: 159 to 160 °C for the first, 263 to 266 °C for the second.

First: Fc1ccc2c(c1)nc(C(F)(F)C(F)(F)F)n2C1CCNCC1
Second: CC(C)C(=O)N1CCC(c2nc3cc(-c4ccc(C(N)=O)c(F)c4)ccc3o2)CC1
The melting point of the first is lower: 177 to 178 °C for the first, 193 to 196 °C for the second.

First: COc1ccc2c(c1)NC(=O)C(CCCBr)O2 (configuration not stated)
Second: COc1ccc(SCn2cc(Cl)cnc2=O)cc1
The melting point of the first is lower: 102 to 103 °C for the first, 140 °C for the second.

First: Cc1ccc2cc(-c3ccc(F)cc3F)ccc2n1
Second: O=C(O)c1nc(-c2ccc(Cl)cc2Cl)c(-c2ccc(Br)cc2)s1
The melting point of the first is lower: 86 °C for the first, 94 to 95 °C for the second.

First: O=C(c1ccco1)C1C(=O)N(c2nccs2)c2ccccc21 (configuration not stated)
Second: Cc1nc(CCOc2ccc(CC3SC(=N)NC3=O)cc2)oc1-c1ccccc1 (configuration not stated)
The melting point of the first is lower: 156 to 157 °C for the first, 194 to 195 °C for the second.

`OCc1sc(Cl)nc1-c1ccc(F)cc1` and `COC1(OC)CCC(O)(c2ccc(F)cc2)CC1` cannot be ordered by melting point: 97 to 98.5 °C for the first, 94 to 99 °C for the second.

First: CC(C)(C)SC(=S)c1cc(C(C)(C)C)c(O)c(C(C)(C)C)c1
Second: CC(C)(C)c1nn(-c2c(Cl)cc(C(F)(F)F)cc2Cl)c(N)c1Br
The melting point of the first is lower: 128 to 130 °C for the first, 228 to 231 °C for the second.

Compared with `C=C(C=O)c1ccc(Cl)cc1[N+](=O)[O-]`, `CC(C)(Cl)C(COCc1ccc([N+](=O)[O-])o1)N=O` (configuration not stated) is higher in melting point: 87 to 88 °C for the first, 134 to 135 °C for the second.

Compared with `Cc1c(C(F)(F)F)noc1NS(=O)(=O)c1cccc2ccccc12`, `CCN(CC)C(=O)/C=C(\C)c1ccc(OC(C)c2ccccc2)c2oc(C(C)=O)cc12` (configuration not stated) is lower in melting point: 154 to 155 °C for the first, 70.8 to 73 °C for the second.

Compared with `COC(=O)C=CC=Cc1ccccc1CNC(=O)OC(C)(C)C`, `CC(C)(C)OC(=O)N[C@@H](CC(=O)NCCC(=O)OCc1ccccc1)C(=O)OCc1ccccc1` is lower in melting point: 96 to 97.5 °C for the first, 77 to 78 °C for the second.

First: Cc1cc(C(=O)N2CCC3(CC2)CSC2=C(O3)c3ccccc3C(=O)C2=O)n(C)n1
Second: COCCNC(=O)c1ccc(C(=O)N2CCN(c3ncccc3NCC(C)C)CC2)nc1
The melting point of the first is higher: 244 to 245 °C for the first, 123 to 125 °C for the second.

Compared with `C=CCc1c2n(c3ccccc13)C(=O)C(Cc1nc[nH]c1C)CC2` (configuration not stated), `C=CCN1C(=O)c2cscc2Nc2ccccc21` is lower in melting point: 215 to 217 °C for the first, 105 to 106 °C for the second.

First: CCOc1cc2cc(CO)c(CO)c(-c3ccnc(Br)c3)c2cc1OC
Second: COc1ccc(S(=O)(=O)N(Cc2ccccc2)C(Cc2nnn(C)n2)C(=O)NO)cc1 (configuration not stated)
The melting point of the first is higher: 156 to 157 °C for the first, 72 to 75 °C for the second.

First: CCCCCCCCCCCCCCCCCC(=O)OC1CC(C)(C)N(OC(C)=O)C(C)(C)C1
Second: CC1CN(C(=O)C(Cl)Cl)C(C)CN1C(=O)C(Cl)Cl (configuration not stated)
The melting point of the first is lower: 63 to 70 °C for the first, 215 °C for the second.

First: O=C(O)c1cccc(NCc2cccnc2)c1C(=O)O
Second: CCCCNc1cc(CN(Cc2ccccc2)C(=O)c2ccccc2)cc(S(N)(=O)=O)c1Oc1ccccc1
The melting point of the first is higher: 231 to 233 °C for the first, 137 to 138 °C for the second.

First: CC(C)Oc1ccc(NC=O)cc1C(F)(F)F
Second: Nc1c(Cl)cc(Nc2ncnc3cnc(N[C@H]4CC[C@H](C(=O)N5CCCC5)CC4)nc23)cc1Cl
The melting point of the first is lower: 80 to 82 °C for the first, 228 to 230 °C for the second.

— a melting point compilation (Tetko et al.; mined from patent text by program, amines drawn as free bases though some values may be those of a salt)
